Results as given in patent US6416979B1, “5-substituted picolinic acid compounds production by Marasmiellus sp” (Pfizer Inc., priority 1997, dated 2002).

Key:
[1] = tested on: TNF production; assay: TNF Bioassay (LPS-stimulated human whole blood, TNF titer with L929 cells); assay type: cell-based; conditions: heparinised human whole blood diluted four-fold, 10 μg/ml LPS, 37° C., 4 h; standard in vitro protocol
Experimental: (§1) Heparinised human whole blood diluted four-fold with RPMI medium was incubated with 10 μg/ml of Lipopolysaccharide (LPS) in the presence of various concentrations of samples at 37° C. in a humidified atmosphere containing 5% CO2 for 4 h. The TNF titer in the supernatants was determined with L929 cells which were destroyed by TNF quantitatively. L929 cells (2.5×10^4 cells) in 90 μl of E-MEM medium containing 1% fetal calf serum and 0.5 μg/ml of actinomycin D were placed in wells of 96-well microplates (flat-bottom). Ten μl of the supernatants was added to each well and incubated at 37° C. in a humidified atmosphere containing 5% CO2. After 18 h, the plates were rinsed with 0.9% sterile saline and stained for 10 min with 0.4% crystal violet in MeOH. The plates were washed with distilled water and were dried by air. Fifty μl of methanol was added to each well to elute the crystal violet, and the plates were read on a microplate reader (model 3550, BIO-RAD) at 595 nm. TNF production inhibitory activity is calculated by the formula: [formula]

[2] = tested on: IL-1 production; assay: IL-1 Bioassay (supernatants of LPS-stimulated human whole blood, specific ELISA); assay type: cell-based; conditions: heparinised human whole blood diluted four-fold, 10 μg/ml LPS, 37° C., 4 h, standard in vitro protocol
Experimental: as §1
The supernatants prepared by the same method as TNF bioassay were analyzed IL-1 titer by commercially available specific ELISA system. The plates were read on a microplate reader (model 3550, BIO-RAD) at 490 nm. IL-1 production inhibitory activity is calculated by the formula: [formula]

With `CC(O)C(O)c1ccc(-c2nnnn2C)nc1` (centres unmarked) [5-(1,2-di-hydroxypropyl)-2-(1-methyl-1H-1,2,3,4-tetrazol-5-yl)pyridine] the “TNF biosynthesis inhibitory activities” value [1] was “found to have the IL-1 and TNF biosynthesis inhibitory activities” and the “IL-1 biosynthesis inhibitory activities” value [2] was “found to have the IL-1 and TNF biosynthesis inhibitory activities”.
`CC(O)C(O)c1ccc(-c2nnn(C)n2)nc1` (centres unmarked) [5-(1,2-di-hydroxypropyl)-2-(2-methyl-2H-1,2,3,4-tetrazol-5-yl)pyridine] was tested, and the “TNF biosynthesis inhibitory activities” value [1] was “found to have the IL-1 and TNF biosynthesis inhibitory activities” and the “IL-1 biosynthesis inhibitory activities” value [2] was “found to have the IL-1 and TNF biosynthesis inhibitory activities”.
For `CC(O)C(O)c1ccc(C#N)nc1` (centres unmarked) [5-(1,2-dihydroxypropyl)-2-pyridinecarbonitrile], the “TNF biosynthesis inhibitory activities” value [1] was “found to have the IL-1 and TNF biosynthesis inhibitory activities” and the “IL-1 biosynthesis inhibitory activities” value [2] was “found to have the IL-1 and TNF biosynthesis inhibitory activities”.
For `CC(O)C(O)c1ccc(C(N)=O)nc1` (centres unmarked) [5-(1,2-dihydroxypropyl)-2-pyridinecarboxamide], the “TNF biosynthesis inhibitory activities” value [1] was “found to have the IL-1 and TNF biosynthesis inhibitory activities” and the “IL-1 biosynthesis inhibitory activities” value [2] was “found to have the IL-1 and TNF biosynthesis inhibitory activities”.
`CC(O)C(O)c1ccc(C(=O)O)nc1` (centres unmarked) [5-(1,2-dihydroxypropyl)-2-pyridinecarboxylic acid] was tested, and the “TNF biosynthesis inhibitory activities” value [1] was “found to have the IL-1 and TNF biosynthesis inhibitory activities” and the “IL-1 biosynthesis inhibitory activities” value [2] was “found to have the IL-1 and TNF biosynthesis inhibitory activities”.
`CC(O)C(O)c1ccc(C(=O)N(C)C)nc1` (centres unmarked) [5-(1,2-dihydroxypropyl)-N,N-di-methyl-2-pyridinecarboxamide] was tested, and the “TNF biosynthesis inhibitory activities” value [1] was “found to have the IL-1 and TNF biosynthesis inhibitory activities” and the “IL-1 biosynthesis inhibitory activities” value [2] was “found to have the IL-1 and TNF biosynthesis inhibitory activities”.
With `COC(=O)c1ccc(C(OC(=O)c2ccc(Br)cc2)C(C)OC(=O)c2ccc(Br)cc2)cn1` (centres unmarked) [methyl 5-(1,2-di-p-bromobenzoyloxypropyl)-2-pyridinecarboxylate] the “TNF biosynthesis inhibitory activities” value [1] was “found to have the IL-1 and TNF biosynthesis inhibitory activities” and the “IL-1 biosynthesis inhibitory activities” value [2] was “found to have the IL-1 and TNF biosynthesis inhibitory activities”.
In the case of `COC(=O)c1ccc(C(OC(C)=O)C(C)OC(C)=O)cn1` (centres unmarked) [methyl 5-(1,2-diacetoxypropyl)-2-pyridinecarboxylate], the “TNF biosynthesis inhibitory activities” value [1] is reported as “found to have the IL-1 and TNF biosynthesis inhibitory activities” and the “IL-1 biosynthesis inhibitory activities” value [2] is reported as “found to have the IL-1 and TNF biosynthesis inhibitory activities”.
With `COC(=O)c1ccc(C(O)C(C)O)cn1` (centres unmarked) [methyl 5-(1,2-dihydroxypropyl)-2-pyridinecarboxylate] the “TNF biosynthesis inhibitory activities” value [1] was “found to have the IL-1 and TNF biosynthesis inhibitory activities” and the “IL-1 biosynthesis inhibitory activities” value [2] was “found to have the IL-1 and TNF biosynthesis inhibitory activities”.
For `COC(=O)c1ccc(C(OC(C)=O)C(C)O)cn1` (centres unmarked) [methyl 5-(1-acetoxy-2-hydroxypropyl)-2-pyridinecarboxylate], the “TNF biosynthesis inhibitory activities” value [1] was “found to have the IL-1 and TNF biosynthesis inhibitory activities” and the “IL-1 biosynthesis inhibitory activities” value [2] was “found to have the IL-1 and TNF biosynthesis inhibitory activities”.
